Molecules are shown by their SMILES. Bounds are passed on as bounds.

Usually IC50 stands for the concentration that inhibits the measured activity by half. Broadly, the inhibition is the change of the read-out against control, counted positive when it falls.

Test [1] deals with T1, recombinant rat PAI-1 (Rattus norvegicus, UniProt P20961).
T1 construct: purchased Molecular Innovations, Inc
T1 sequence (P20961 24-402): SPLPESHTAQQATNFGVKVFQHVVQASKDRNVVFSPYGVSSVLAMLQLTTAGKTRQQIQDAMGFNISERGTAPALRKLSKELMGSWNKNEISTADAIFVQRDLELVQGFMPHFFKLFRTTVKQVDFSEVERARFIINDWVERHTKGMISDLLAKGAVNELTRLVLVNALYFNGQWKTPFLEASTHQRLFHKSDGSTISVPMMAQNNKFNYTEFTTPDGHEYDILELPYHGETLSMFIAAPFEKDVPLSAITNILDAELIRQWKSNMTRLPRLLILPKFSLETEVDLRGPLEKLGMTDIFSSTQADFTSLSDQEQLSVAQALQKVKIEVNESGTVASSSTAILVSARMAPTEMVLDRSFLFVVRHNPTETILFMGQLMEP
As to the kind of experiment: Test Example 3: rat PAI-1 inhibitory activity (as Test Example 2 with rat PAI-1). The test is classed as biochemical. Particulars: for Inhibition Rate of PAI-1 Activity (%) / IC50: rat PAI-1; for IC50: calculated from the inhibition rates; for inhibition at 10 µM: read-out: Inhibition Rate of PAI-1 Activity (%).

For test [2], the target named is T2, recombinant human PAI-1 (Homo sapiens, UniProt P05121).
T2 construct: purchased Molecular Innovations, Inc
T2 sequence (P05121 24-402): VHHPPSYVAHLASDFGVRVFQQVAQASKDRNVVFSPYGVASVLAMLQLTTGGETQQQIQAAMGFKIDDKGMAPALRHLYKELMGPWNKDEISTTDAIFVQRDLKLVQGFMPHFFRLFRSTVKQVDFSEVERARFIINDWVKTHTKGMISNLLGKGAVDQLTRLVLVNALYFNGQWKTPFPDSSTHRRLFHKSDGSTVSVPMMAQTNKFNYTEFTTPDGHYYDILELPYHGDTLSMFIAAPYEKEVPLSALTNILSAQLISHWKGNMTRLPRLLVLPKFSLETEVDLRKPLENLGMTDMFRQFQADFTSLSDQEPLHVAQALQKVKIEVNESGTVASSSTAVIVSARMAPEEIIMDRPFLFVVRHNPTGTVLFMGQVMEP
As to the kind of experiment: Test Example 2: human PAI-1 inhibitory activity (tPA fluorogenic substrate, pH 7.4 HEPES buffer). The test is classed as biochemical. To be noted: for Inhibition Rate of PAI-1 Activity (%): HEPES buffer; for IC50: human PAI-1, calculated from the inhibition rates. Here is the method:
0.1 M HEPES, 0.1 M NaCl. 1 mM EDTA. 0.1% Polyethylene glycol 8,000 (Hampton Research Corporation),
2 mM Dimethyldecylphoshine oxide [Apo-10] (Fluka Corporation)

The target of test [3] is T2, recombinant human PAI-1. Nature of the test: Test Example 1: human PAI-1 inhibitory activity (tPA fluorogenic substrate, pH 7.5 Tris buffer). The test is classed as biochemical. To be noted: for Inhibition Rate of PAI-1 Activity (%): Tris buffer; for inhibition at 25 µM: read-out: Inhibition Rate of PAI-1 Activity (%). Here is the method:
50 mM Tris, 150 mM NaCl, 10 μg/ml BSA, 0.01% Tween80 (SIGMA-ALDRICH Corporation)

Test [4] has as its target T2, recombinant human PAI-1. As to the kind of experiment: Test Example 4: human PAI-1 inhibitory activity (amount of PAI-1 bound to plate-coated tPA, ELISA). The test is classed as binding. To be noted: read-out: Inhibition Rate of PAI-1 Activity (%). Here is the method:
100 μl of tPA solution, where one-chain recombinant tPA (hereinafter referred to as tPA; American diagnostica, inc.) had been diluted with Buffer A to achieve a concentration of 10 μg/ml, was added to each well of a 96-well plate (Nunc Maxisorp), and the plate was incubated for one night at 4° C. to be coated with tPA. Then, after suction of tPA solution from the 96-well plate, the plate was rinsed successively with Buffer A and Buffer B.
To Buffer B, solutions of the compound according to the present invention dissolved with DMSO (final DMSO concentration: 0.2%) and recombinant human PAI-1 (Molecular Innovations, Inc.) were added. The mixtures were blended so that the final concentrations would be 0.1 to 3.0 μM and 50 ng/ml respectively, and were incubated for 15 minutes on ice. These mixed solutions were added to the rinsed 96-well plate at 100 μl/well, and incubated for 60 minutes at room temperature. To prepare a calibration curve, PAI-1 solutions without the compound according to the present invention (solutions where the final concentrations being 100, 50, 25, 12.5, 6.25, 3.13, or 1.56 ng/ml PAI-1) were added at 100 μl/well, and the plate was incubated for 60 minutes at room temperature, as standard.
After incubation, the reaction mixture was removed by suction, and each well was rinsed with Wash Buffer. Next, anti-human PAI-1 monoclonal antibody (PROGEN Inc.) diluted with Buffer C to be 3.0 μg/ml was added to the 96-well plate at 100 μl/well, and the plate was incubated for 1 hour at room temperature. After rinsing each well with Wash Buffer, alkaline phosphatase-labeled goat anti-mouse IgG (H+L) (Jackson ImmunoResearch, Inc.) diluted with Buffer D to be 0.12 μg/ml was added at 100 μl/well, and the plate was incubated for 1 hour at room temperature. After rinsing each well with Wash Buffer, 1.0 mg/ml p-Nitrophenyl Phosphate (SIGMA) was added to the 96-well plate at 100 μl/well to start the reaction. After 30 to 60 minutes, 25 μl of 0.5 N NaOH was added to stop the reaction, and the absorbance was measured at 405 nm using a multiplate reader (GENios; TECAN G.M.B.H.). Based on the calibration curve prepared from the standard wells, amounts of PAI-1 bound to tPA in the wells that had been treated with the compound according to the present invention were calculated, and the PAI-1 inhibition rates by the compounds according to the present invention were obtained by the following equation. [PAI-1 Inhibition Rate (%)]=[1−(amount of PAI-1 bound to tPA on the well by treatment with the compound according to the present invention)/(amount of PAI-1 bound to tPA on the well by treatment with PAI-1 solution not including the compound according to the present invention (solution having the final concentration of 50 ng/ml PAI-1)]×100
For orientation: An ELISA detects its analyte on a solid surface through an enzyme-linked reagent.

In the case of `CCCCc1ccc(COc2ccc(-c3ccc(OC(F)(F)F)cc3)cc2CCC(=O)O)cc1` [Compound 30], the “Inhibition Rate of PAI-1 Activity (%)” value is 0% in test [1] (compound concentration 0.3 μM); 5% in test [1] (compound concentration 1 μM); 47% in test [1] (compound concentration 3 μM); 89% in test [1] (compound concentration 10 μM); 0% in test [2] (Compound Concentration 0.1 μM); 5% in test [2] (Compound Concentration 0.3 μM). Also, the “Inhibition Rate of PAI-1 Activity (%)” value in test [2] (Compound Concentration 1 μM) was 25%; in test [2] (Compound Concentration 3 μM) it was 92%; in test [3] (Compound Concentration 5 μM) it was 29%; in test [3] (Compound Concentration 10 μM) it was 70%; in test [3] (Compound Concentration 25 μM), above 99%.

With `CC(C)c1ccc(Oc2ccc(CCC(=O)O)c(Oc3ccc(C(C)C)cc3)c2)cc1` [Compound 73], the figures for the IC50 in test [1] and in test [2] were 2100 nM and 1270 nM, respectively. For the same compound, the inhibition at 25 µM in test [3] was above 99%.

Consider `O=C(O)CCc1cc(-c2ccc(OC(F)(F)F)cc2)ccc1OCCCCc1ccccc1` [Compound 102], for which the results for the IC50 in test [1] and in test [2] were 2750 nM and 1320 nM, respectively. For the same compound, the inhibition at 1 µM in test [4] was 0%.

Take `CC(C)(C)c1ccc(COc2ccc(-c3ccc(OC(F)(F)F)cc3)cc2OCC(=O)O)cc1` [Compound 105]: the IC50 in test [1] was 2190 nM; in test [2], 1070 nM. The inhibition at 25 µM in test [3] was above 99%.

For the compound `CCN(CC)c1ccc(N(Cc2ccc(C(C)(C)C)cc2)C(=O)C(=O)O)c(-c2ccc(OC(F)(F)F)cc2)c1` [Compound 208], in test [4], the inhibition at 1 µM stood at 13%.

As to `CC(C)Oc1ccc(N(Cc2ccc(C(C)(C)C)cc2)C(=O)C(=O)O)cc1-c1ccc(OC(F)(F)F)cc1` [Compound 211], the “Inhibition Rate of PAI-1 Activity (%)” value in test [1] (compound concentration 0.3 μM) is listed as 4%; in test [1] (compound concentration 1 μM) it was 17%; in test [1] (compound concentration 3 μM), 78%; in test [1] (compound concentration 10 μM) it was 87%; in test [2] (Compound Concentration 0.1 μM) it was 9%; in test [2] (Compound Concentration 0.3 μM) it was 16%. Besides, the “Inhibition Rate of PAI-1 Activity (%)” value came to 43% in test [2] (Compound Concentration 1 μM), 96% in test [2] (Compound Concentration 3 μM), 87% in test [3] (Compound Concentration 5 μM) and 96% in test [3] (Compound Concentration 10 μM).

Take `CC(C)(C)c1ccc(CN(C(=O)C(=O)O)c2ccc(OCc3ccccc3)c(-c3ccc(OC(F)(F)F)cc3)c2)cc1` [Compound 212]: the “Inhibition Rate of PAI-1 Activity (%)” value was 8% in test [1] (compound concentration 0.3 μM); 40% in test [1] (compound concentration 1 μM); 73% in test [1] (compound concentration 3 μM); 67% in test [1] (compound concentration 10 μM); 5% in test [2] (Compound Concentration 0.1 μM); 15% in test [2] (Compound Concentration 0.3 μM). The “Inhibition Rate of PAI-1 Activity (%)” value in test [2] (Compound Concentration 1 μM) is recorded as 64%; in test [2] (Compound Concentration 3 μM), 98%; in test [3] (Compound Concentration 5 μM) it was 78%; in test [3] (Compound Concentration 10 μM) it was 95%.

For `CCN(CC)c1ccc(N(Cc2ccc(C(C)(C)C)cc2)C(=O)C(=O)O)cc1-c1ccc(OC(F)(F)F)cc1` [Compound 213], the “Inhibition Rate of PAI-1 Activity (%)” value in test [1] (compound concentration 0.3 μM) is 8%; in test [1] (compound concentration 1 μM), 26%; in test [1] (compound concentration 3 μM), 90%; in test [1] (compound concentration 10 μM) it was 78%; in test [2] (Compound Concentration 0.1 μM) it was 0%; in test [2] (Compound Concentration 0.3 μM), 10%. Further, the “Inhibition Rate of PAI-1 Activity (%)” value worked out at 48% in test [2] (Compound Concentration 1 μM), 98% in test [2] (Compound Concentration 3 μM), 93% in test [3] (Compound Concentration 5 μM) and 84% in test [3] (Compound Concentration 10 μM).

With `CN(C)c1ccc(N(Cc2ccc(C(C)(C)C)cc2)C(=O)C(=O)O)cc1-c1ccc(OC(F)(F)F)cc1` [Compound 214], the “Inhibition Rate of PAI-1 Activity (%)” value is 0% in test [1] (compound concentration 0.3 μM); 8% in test [1] (compound concentration 1 μM); 77% in test [1] (compound concentration 3 μM); 97% in test [1] (compound concentration 10 μM); 4% in test [2] (Compound Concentration 0.1 μM); 2% in test [2] (Compound Concentration 0.3 μM). Also, the “Inhibition Rate of PAI-1 Activity (%)” value in test [2] (Compound Concentration 1 μM) is 40%; in test [2] (Compound Concentration 3 μM) it was 96%; in test [3] (Compound Concentration 5 μM) it was 87%; in test [3] (Compound Concentration 10 μM) it was 93%.

`Cc1cc(N(C)C)c(-c2ccc(OC(F)(F)F)cc2)cc1N(Cc1ccc(C(C)(C)C)cc1)C(=O)C(=O)O` [Compound 215]: the “Inhibition Rate of PAI-1 Activity (%)” value in test [1] (compound concentration 0.3 μM) was determined as 2%; in test [1] (compound concentration 1 μM), 16%; in test [1] (compound concentration 3 μM), 84%; in test [1] (compound concentration 10 μM) it was 97%; in test [2] (Compound Concentration 0.1 μM) it was 7%; in test [2] (Compound Concentration 0.3 μM), 18%. The “Inhibition Rate of PAI-1 Activity (%)” value turned out to be 54% in test [2] (Compound Concentration 1 μM), 95% in test [2] (Compound Concentration 3 μM), 90% in test [3] (Compound Concentration 5 μM) and 92% in test [3] (Compound Concentration 10 μM).

`CCCCCOc1ccc(-c2ccc(OC(F)(F)F)cc2)cc1N(CCCCc1ccccc1)C(=O)C(=O)O` [Compound 226]: in test [1], the IC50 was 1000 nM and the inhibition at 10 µM was above 99%. In test [2], the IC50 is 510 nM.

In the case of `CCCCOc1ccc(N(CCCCc2ccccc2)C(=O)C(=O)O)cc1-c1ccc(OC(F)(F)F)cc1` [Compound 227], the values for the concentration for half-maximal inhibition (IC50) in test [1] and in test [2] were 1950 nM and 1110 nM, respectively.

On to `CCC(CC)Oc1ccc(N(CCCc2ccccc2)C(=O)C(=O)O)cc1-c1ccc(OC(F)(F)F)cc1` [Compound 230], for which the IC50 in test [1] was 1830 nM; in test [2], 1320 nM.

As to `CCCCOc1ccc(-c2ccc(OC(F)(F)F)cc2)cc1N(CCCCc1ccccc1)C(=O)C(=O)O` [Compound 231], the IC50 in test [1] is 1570 nM; in test [2], 1190 nM. In addition, in test [1], the inhibition at 10 µM was above 99%.

For the compound `CCN(CC)c1ccc(N(CCCc2ccccc2)C(=O)C(=O)O)c(-c2ccc(OC(F)(F)F)cc2)c1` [Compound 238], the figures for the IC50 in test [1] and in test [2] were 3140 nM and 1570 nM, respectively.
